# Measurements reported in patent US6020370A, “Bridged cyclic amino acids as pharmaceutical agents” (Warner-Lambert Company, priority 1998, dated 2000).
# Biological target: T1, α2 δ subunit of a calcium channel (Sus scrofa, UniProt A0A287BIN3)
# T1 construct: derived from porcine brain tissue; from tissue; host or cells: porcine brain tissue
# Assay: Radioligand binding assay using [^3 H]gabapentin and the α2 δ subunit derived from porcine brain tissue
# Conditions: Table 1, [^3 H]gabapentin
# T1 sequence (A0A287BIN3 entry or part of it): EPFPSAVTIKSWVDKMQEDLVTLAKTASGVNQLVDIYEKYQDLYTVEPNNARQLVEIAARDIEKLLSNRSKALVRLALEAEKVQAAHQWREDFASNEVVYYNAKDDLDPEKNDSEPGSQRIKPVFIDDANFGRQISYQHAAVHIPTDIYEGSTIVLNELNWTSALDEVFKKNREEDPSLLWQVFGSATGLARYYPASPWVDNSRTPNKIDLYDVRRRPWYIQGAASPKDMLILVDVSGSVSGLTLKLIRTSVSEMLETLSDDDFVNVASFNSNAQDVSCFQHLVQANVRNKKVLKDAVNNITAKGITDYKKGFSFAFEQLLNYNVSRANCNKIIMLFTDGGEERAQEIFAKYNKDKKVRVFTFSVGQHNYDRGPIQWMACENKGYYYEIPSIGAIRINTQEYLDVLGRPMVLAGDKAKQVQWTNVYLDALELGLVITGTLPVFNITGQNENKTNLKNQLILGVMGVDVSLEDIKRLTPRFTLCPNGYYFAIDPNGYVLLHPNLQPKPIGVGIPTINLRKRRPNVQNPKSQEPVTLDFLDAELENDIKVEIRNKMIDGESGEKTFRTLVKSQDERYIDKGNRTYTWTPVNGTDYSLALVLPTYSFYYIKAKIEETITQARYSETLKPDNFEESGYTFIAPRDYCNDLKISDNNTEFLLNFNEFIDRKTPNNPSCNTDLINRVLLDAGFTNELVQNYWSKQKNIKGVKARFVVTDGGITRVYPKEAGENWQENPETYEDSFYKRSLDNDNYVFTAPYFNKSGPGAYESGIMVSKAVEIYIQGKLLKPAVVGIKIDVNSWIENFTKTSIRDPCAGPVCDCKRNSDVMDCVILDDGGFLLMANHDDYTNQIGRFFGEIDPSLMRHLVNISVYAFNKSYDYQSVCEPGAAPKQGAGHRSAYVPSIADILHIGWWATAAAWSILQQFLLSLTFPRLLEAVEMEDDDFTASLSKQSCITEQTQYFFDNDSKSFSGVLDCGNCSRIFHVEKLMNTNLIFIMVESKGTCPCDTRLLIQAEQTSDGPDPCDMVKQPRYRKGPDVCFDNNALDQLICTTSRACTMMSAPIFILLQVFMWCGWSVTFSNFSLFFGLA
row,SMILES,IC50 [nM]
1,NCC1(CC(=O)O)CC2CCC1C2 (racemic) [Compound 5],103
2,NCC1(CC(=O)O)C2CCCC1CCC2 (centres unmarked) [Compound 3],47
